Source: ChEMBL document CHEMBL3526040, “Immune-mediated agranulocytosis caused by the cocaine adulterant levamisole: a case for reactive metabolite(s) involvement” (Drug Metab Dispos, 2012)

What was measured:
[1] = Drug excretion in human urine treated with [3H]-levamisole at 150 mg, po; format: ADME, tissue-based; details: in vivo
in vivo [2] = details: dog, po, 10 mg/kg
Description: Elimination half life in fasted dog at 10 mg/kg, po

[3] = Tmax in male human at 150 mg, po; details: in vivo
in vivo [4] = details: dog, iv, 10 mg/kg
Description: Elimination half life in dog at 10 mg/kg, iv

in vivo [5] = details: dog, po, 10 mg/kg; remark: listed apart in the source
Description: Oral bioavailability in fed dog at 10 mg/kg

[6] = Oral bioavailability in human at 150 mg; details: in vivo
[7] = Tmax in human at 150 mg, po; details: in vivo
[8] = Cmax in human at 150 mg, po; details: in vivo
in vivo [9] = details: dog, po, 10 mg/kg; remark: listed apart in the source
Description: Tmax in fed dog at 10 mg/kg, po

[10] = Elimination half life in female human at 150 mg, po; details: in vivo
[11] = AUC in male human at 150 mg, po; details: plasma
in vivo [12] = details: dog, plasma, po, 10 mg/kg
Description: AUC in fed dog at 10 mg/kg, po

in vivo [13] = details: dog, po, 10 mg/kg; remark: listed apart in the source
Description: Cmax in fed dog at 10 mg/kg, po

[14] = Renal clearance in female human at 150 mg, po; details: in vivo
[15] = Cmax in female human at 150 mg, po; details: in vivo
in vivo [16] = details: dog, po, 10 mg/kg; remark: listed apart in the source
Description: Elimination half life in fed dog at 10 mg/kg, po

in vivo [17] = details: dog, po, 10 mg/kg; remark: listed apart in the source
Description: Tmax in fasted dog at 10 mg/kg, po

in vivo [18] = details: dog, po, 10 mg/kg; remark: listed apart in the source
Description: Cmax in fasted dog at 10 mg/kg, po

[19] = Elimination half life in male human at 150 mg, po; details: in vivo
[20] = Elimination half life in human at 150 mg, po; details: in vivo
[21] = Tmax in female human at 150 mg, po; details: in vivo
[22] = Plasma clearance in female human at 150 mg, po
[23] = Oral bioavailability in male human at 150 mg; details: in vivo
[24] = Plasma clearance in human at 150 mg, po
[25] = AUC in human at 150 mg, po; details: plasma
[26] = Oral bioavailability in female human at 150 mg; details: in vivo
[27] = Renal clearance in human at 150 mg, po; details: in vivo
in vivo [28] = details: dog, plasma, iv, 10 mg/kg
Description: Plasma clearance in dog at 10 mg/kg, iv

[29] = AUC in female human at 150 mg, po; details: plasma
[30] = Cmax in male human at 150 mg, po; details: in vivo
in vivo [31] = details: dog, plasma, po, 10 mg/kg; remark: listed apart in the source
Description: AUC in fasted dog at 10 mg/kg, po

[32] = Plasma clearance in male human at 150 mg, po
[33] = Half life in blood (unknown origin)
in vivo [34] = details: dog, plasma, iv, 10 mg/kg; remark: listed apart in the source
Description: AUC in dog at 10 mg/kg, iv

[35] = Volume of distribution at steady state in dog at 10 mg/kg, iv; details: in vivo
in vivo [36] = details: dog, po, 10 mg/kg; remark: listed apart in the source
Description: Oral bioavailability in fasted dog at 10 mg/kg

[37] = Renal clearance in male human at 150 mg, po; details: in vivo
[38] = Renal excretion in human at 150 mg, po; details: urine

Question: Which Drug excretion [1] does the source give for `Oc1ccc([C@H]2CN3CCSC3=N2)cc1` here?
Answer: 25%

Question: For `O=C(O)[C@H]1O[C@@H](Oc2ccc([C@H]3CN4CCSC4=N3)cc2)[C@H](O)[C@@H](O)[C@@H]1O`, which Drug excretion [1] is on record?
Answer: 25%

Question: With `c1ccc([C@H]2CN3CCSC3=N2)cc1` [LEVAMISOLE] as the molecule, how does the half-life (in vivo [2]) read?
Answer: 1.3 h

Question: What about the Tmax [3] of the same molecule?
Answer: 1.7 h

Question: And the half-life (in vivo [4])?
Answer: 1.8 h

Question: And the bioavailability (in vivo [5])?
Answer: 44%

Question: And the bioavailability [6]?
Answer: 62.5%

Question: And the Tmax [7]?
Answer: 1.5 h

Question: And the Cmax [8]?
Answer: 717 ng/mL

Question: What about the Tmax (in vivo [9]) of the same molecule?
Answer: 4.5 h

Question: What about the half-life [10] of the same molecule?
Answer: 5.9 h

Question: And the AUC [11]?
Answer: 3070 ng·h/mL

Question: And the AUC (in vivo [12])?
Answer: 8940 ng·h/mL

Question: What about the Cmax (in vivo [13]) of the same molecule?
Answer: 1980 ng/mL

Question: What about the CL renal [14] of the same molecule?
Answer: 25 mL/min

Question: What about the Cmax [15] of the same molecule?
Answer: 820 ng/mL

Question: What about the half-life (in vivo [16]) of the same molecule?
Answer: 1.6 h

Question: And the Tmax (in vivo [17])?
Answer: 1.8 h

Question: And the Cmax (in vivo [18])?
Answer: 3330 ng/mL

Question: And the half-life [19]?
Answer: 5.4 h

Question: And the half-life [20]?
Answer: 5.6 h

Question: What about the Tmax [21] of the same molecule?
Answer: 1.1 h

Question: What about the CL/F [22] of the same molecule?
Answer: 7.56 mL/min/kg

Question: And the bioavailability [23]?
Answer: 61.5%

Question: And the CL/F [24]?
Answer: 8.04 mL/min/kg

Question: And the AUC [25]?
Answer: 3070 ng·h/mL

Question: What about the bioavailability [26] of the same molecule?
Answer: 64.7%

Question: And the CL renal [27]?
Answer: 29.2 mL/min

Question: And the clearance (in vivo [28])?
Answer: 8.92 mL/min/kg

Question: What about the AUC [29] of the same molecule?
Answer: 3070 ng·h/mL

Question: What about the Cmax [30] of the same molecule?
Answer: 672 ng/mL

Question: And the AUC (in vivo [31])?
Answer: 12200 ng·h/mL

Question: What about the CL/F [32] of the same molecule?
Answer: 8.25 mL/min/kg

Question: What about the half-life [33] of the same molecule?
Answer: < 6 h

Question: And the AUC (in vivo [34])?
Answer: 18100 ng·h/mL

Question: What about the Vd [35] of the same molecule?
Answer: 1.42 L/kg

Question: What about the bioavailability (in vivo [36]) of the same molecule?
Answer: 64%

Question: What about the CL renal [37] of the same molecule?
Answer: 31 mL/min

Question: And the dose excreted [38]?
Answer: 3%
